Tests used:
[1] = tested on: HAP1 MTAP-deleted cell line; experiment: SDMA in-cell western assay, HAP1 MTAP-deleted; format: cell-based; conditions: for IC50: Homo sapiens, HAP1, SDMA in-cell western, HAP1 MTAP-deleted; for MTAP intact/deleted ratio: SDMA in-cell western
How it was run: (§1)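 MTAP-null vs endogenous-MTAP HAP1 isogenic cells; in-cell western SDMA readout; IC50 per line.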

[2] = tested on: HAP1 MTAP-intact cell line; experiment: SDMA in-cell western assay, HAP1 MTAP-intact; format: cell-based; conditions: Homo sapiens, HAP1, SDMA in-cell western, HAP1 MTAP-intact; read-out: MTAP HAP1 intact IC50
How it was run: as §1

PRMT5 [3] = molecular target: T1, PRMT5 (Homo sapiens, UniProt O14744); experiment: PRMT5 biochemical IC50 assay with MTA as cofactor; conditions: PRMT5, MTA as cofactor; read-out: MTA IC50
T1 construct: purchased Viva (custom protein)
T1 sequence (O14744 whole entry): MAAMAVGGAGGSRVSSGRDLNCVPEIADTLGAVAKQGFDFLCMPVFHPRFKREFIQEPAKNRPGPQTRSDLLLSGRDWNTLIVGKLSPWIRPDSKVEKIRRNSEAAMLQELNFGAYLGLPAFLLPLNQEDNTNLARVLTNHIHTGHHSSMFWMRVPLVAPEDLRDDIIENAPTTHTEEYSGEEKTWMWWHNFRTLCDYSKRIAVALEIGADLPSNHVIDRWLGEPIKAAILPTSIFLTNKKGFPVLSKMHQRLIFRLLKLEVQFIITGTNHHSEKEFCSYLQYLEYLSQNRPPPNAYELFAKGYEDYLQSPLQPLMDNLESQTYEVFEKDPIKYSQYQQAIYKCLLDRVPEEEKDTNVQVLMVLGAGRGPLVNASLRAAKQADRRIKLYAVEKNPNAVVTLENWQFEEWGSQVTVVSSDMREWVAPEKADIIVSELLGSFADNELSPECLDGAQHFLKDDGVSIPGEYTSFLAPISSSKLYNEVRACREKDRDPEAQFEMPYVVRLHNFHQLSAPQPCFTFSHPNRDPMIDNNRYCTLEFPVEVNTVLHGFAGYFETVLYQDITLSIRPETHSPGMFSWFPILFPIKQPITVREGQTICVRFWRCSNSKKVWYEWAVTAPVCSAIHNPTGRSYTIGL
T1 sequence (Q9BQA1 whole entry partner): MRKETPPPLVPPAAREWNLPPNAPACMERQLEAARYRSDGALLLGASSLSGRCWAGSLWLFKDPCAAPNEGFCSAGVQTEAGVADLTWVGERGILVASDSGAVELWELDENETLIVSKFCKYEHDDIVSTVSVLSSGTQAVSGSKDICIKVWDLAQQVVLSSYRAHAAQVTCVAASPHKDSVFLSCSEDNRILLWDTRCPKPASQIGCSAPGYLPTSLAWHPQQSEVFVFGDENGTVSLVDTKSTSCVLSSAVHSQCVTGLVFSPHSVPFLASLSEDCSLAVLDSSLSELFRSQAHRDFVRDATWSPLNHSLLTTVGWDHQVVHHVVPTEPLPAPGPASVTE

PRMT5 [4] = molecular target: T1, PRMT5; experiment: PRMT5 biochemical IC50 assay with SAM as cofactor; conditions: PRMT5, SAM as cofactor; read-out: SAM IC50
PRMT5 [5] = molecular target: T1, PRMT5; experiment: PRMT5 biochemical IC50 assay with no cofactor; conditions: PRMT5, no cofactor; read-out: No Cofactor/rel IC50
From the text: Table 1 indicates IC50 values (μM) against PRMT5 for exemplary compounds in the presence of SAM as cofactor, with no cofactor, and with MTA as cofactor, respectively (columns 4-6). […] Ki values can be calculated from the IC50 values as described in the Examples section. As detailed in the Examples section, for the assay performed in the presence of SAM, IC50=Ki×1.5 (Ki=IC50/1.5).

[6] = tested on: HAP1 MTAP-deleted cell line; experiment: Viability assay, MTAP-deleted cell line; format: cell-based; conditions: Homo sapiens, HAP1, viability assay, MTAP-deleted cell line; read-out: HAP1 MTAP deleted viability
From the text: Table 1 additionally indicates IC50 values in a viability assay for the MTAP-deleted cell line (column 10), indicating the effect of treatment with compound on cell survival.

[7] = read-out: HAP 1 MTAP deleted IC50
[8] = IC50 ratio HAP1 MTAP-intact / HAP1 MTAP-deleted
[9] = read-out: HAP1 MTAP deleted IC50
[10] = IC50 ratio HAP1 MTAP-intact vs HAP1 MTAP-deleted

| IC50 [1, 7] [nM] | IC50 [2] [nM] | IC50 (PRMT5 [3]) [nM] | IC50 (PRMT5 [4]) [nM] | IC50 (PRMT5 [5]) [nM] | IC50 [1, 9] [nM] | SMILES | MTAP intact/deleted ratio [1, 8] | IC50 [6] [nM] | MTAP intact/deleted ratio [1, 10] |
| --- | --- | --- | --- | --- | --- | --- | --- | --- | --- |
| < 100 | 100 to 1000 | < 50 | 50 to 500 | < 50 | – | C[C@H]1CC[C@H](c2ccc3sc(C(F)(F)F)nc3c2)N(C(=O)C(=O)Nc2cncc(C(N)=O)c2)C1 (single isomer, unassigned) [Compound 1023] | A (an IC50 ratio greater than or equal to 10 fold) | < 1000 | – |
| < 100 | 100 to 1000 | < 50 | 50 to 500 | < 50 | – | COc1ncc(NC(=O)C(=O)N2C[C@@H](C)CC[C@@H]2c2ccc3sc(C(F)(F)F)nc3c2)cc1C(N)=O (single isomer, unassigned) [Compound 1024] | A (an IC50 ratio greater than or equal to 10 fold) | < 1000 | – |
| > 1000 | > 1000 | > 500 | > 500 | > 500 | – | C[C@@H]1CC[C@@H](c2ccc3sc(C(F)(F)F)nc3c2)N(C(=O)C(=O)Nc2cncc(C(N)=O)c2)C1 (single isomer, unassigned) [Compound 1029] | B (an IC50 ratio greater than or equal to 3 fold but lower than 10 fold) | > 10000 | – |
| 100 to 1000 | > 1000 | > 500 | > 500 | > 500 | – | Cc1cc(NC(=O)C(=O)N2C[C@@H](C)CC[C@@H]2c2ccc3c(cnn3C)c2)cnc1N (single isomer, unassigned) [Compound 1037] | A (an IC50 ratio greater than or equal to 10 fold) | > 10000 | – |
| 100 to 1000 | > 1000 | > 500 | > 500 | > 500 | – | Cc1cc(NC(=O)C(=O)N2C[C@@H](C)CC[C@@H]2c2ccc3nn(C)cc3c2)cnc1N (single isomer, unassigned) [Compound 1040] | A (an IC50 ratio greater than or equal to 10 fold) | > 10000 | – |
| < 100 | 100 to 1000 | < 50 | 50 to 500 | < 50 | – | Cc1cc(NC(=O)C(=O)N2C[C@H](C)CC[C@H]2c2ccc3nn(C)cc3c2)cnc1N (single isomer, unassigned) [Compound 1044] | A (an IC50 ratio greater than or equal to 10 fold) | < 1000 | – |
| – | > 1000 | > 500 | > 500 | > 500 | > 1000 | Cc1cncc(NC(=O)C(=O)N2C[C@@H](C)CC[C@H]2c2cccc(F)c2)c1 (single isomer, unassigned) [Compound 1080] | – | > 10000 | C (an IC50 ratio of less than 3 fold) |
| – | > 1000 | > 500 | > 500 | > 500 | > 1000 | C[C@@H]1CC[C@@H](c2cc(F)cc(Cl)c2)N(C(=O)C(=O)Nc2cncc(C(N)=O)c2)C1 (single isomer, unassigned) [Compound 1084] | – | > 10000 | C (an IC50 ratio of less than 3 fold) |
| – | 100 to 1000 | < 50 | < 50 | < 50 | < 100 | COc1ncc(NC(=O)C(=O)N2C[C@@H](C)CC[C@@H]2c2ccc3sc(C4(CN(C)C)CC4)nc3c2)cc1C(N)=O (single isomer, unassigned) [Compound 1109] | – | < 1000 | A (an IC50 ratio greater than or equal to 10 fold) |

More lines, now with the values behind:

| SMILES | IC50 [1, 7] [nM] | IC50 [2] [nM] | IC50 (PRMT5 [3]) [nM] | IC50 (PRMT5 [4]) [nM] | IC50 (PRMT5 [5]) [nM] | IC50 [1, 9] [nM] | MTAP intact/deleted ratio [1, 8] | IC50 [6] [nM] | MTAP intact/deleted ratio [1, 10] |
| --- | --- | --- | --- | --- | --- | --- | --- | --- | --- |
| Cc1cc(NC(=O)C(=O)N2C[C@@H](C)CC[C@@H]2c2ccc(C(F)F)nc2)cnc1N (single isomer, unassigned) [Compound 1018] | 100 to 1000 | 100 to 1000 | < 50 | 50 to 500 | 50 to 500 | – | B (an IC50 ratio greater than or equal to 3 fold but lower than 10 fold) | 1000 to 10000 | – |
| Cc1cc(NC(=O)C(=O)N2C[C@@H](C)CC[C@@H]2c2cscn2)cnc1N (single isomer, unassigned) [Compound 1020] | 100 to 1000 | > 1000 | < 50 | > 500 | 50 to 500 | – | A (an IC50 ratio greater than or equal to 10 fold) | 1000 to 10000 | – |
| Cc1cc(NC(=O)C(=O)N2C[C@H](C)CC[C@H]2c2cscn2)cnc1N (single isomer, unassigned) [Compound 1028] | > 1000 | > 1000 | > 500 | > 500 | > 500 | – | C (an IC50 ratio of less than 3 fold) | > 10000 | – |
| COc1ncc(NC(=O)C(=O)N2C[C@@H](C)CC[C@@H]2c2cscn2)cc1C(N)=O (single isomer, unassigned) [Compound 1033] | > 1000 | > 1000 | > 500 | > 500 | > 500 | – | B (an IC50 ratio greater than or equal to 3 fold but lower than 10 fold) | > 10000 | – |
| COc1ncc(NC(=O)C(=O)N2C[C@H](C)CC[C@H]2c2cscn2)cc1C(N)=O (single isomer, unassigned) [Compound 1042] | < 100 | > 1000 | < 50 | 50 to 500 | 50 to 500 | – | A (an IC50 ratio greater than or equal to 10 fold) | 1000 to 10000 | – |
| Cc1cc(NC(=O)C(=O)N2C[C@@H](C)CC[C@@H]2c2ccc(N)cc2)cnc1N (single isomer, unassigned) [Compound 1081] | – | > 1000 | > 500 | > 500 | > 500 | > 1000 | – | > 10000 | B (an IC50 ratio greater than or equal to 3 fold but lower than 10 fold) |
| Cc1cc(NC(=O)C(=O)N2C[C@H](C)[C@@H](OC(C)C)C[C@H]2c2ccccc2)cnc1N (single isomer, unassigned) [Compound 1088] | – | 100 to 1000 | < 50 | 50 to 500 | < 50 | < 100 | – | < 1000 | A (an IC50 ratio greater than or equal to 10 fold) |
| CCc1cc(NC(=O)C(=O)N2C[C@H](C)[C@H](OC)C[C@H]2c2ccc(N3CCN(C)CC3)cc2)cnc1N (single isomer, unassigned) [Compound 1089] | – | 100 to 1000 | < 50 | 50 to 500 | 50 to 500 | < 100 | – | < 1000 | A (an IC50 ratio greater than or equal to 10 fold) |
| CCc1cc(NC(=O)C(=O)N2C[C@H](C)CC[C@H]2c2ccc(N3CCN(CC)CC3)cc2)cnc1N (single isomer, unassigned) [Compound 1097] | – | 100 to 1000 | < 50 | 50 to 500 | < 50 | < 100 | – | < 1000 | A (an IC50 ratio greater than or equal to 10 fold) |
| CCc1cc(NC(=O)C(=O)N2C[C@@H](C)CC[C@@H]2c2ccc(N3CCN(C)CC3)nc2)cnc1N (single isomer, unassigned) [Compound 1103] | – | 100 to 1000 | < 50 | 50 to 500 | < 50 | < 100 | – | < 1000 | A (an IC50 ratio greater than or equal to 10 fold) |
| COc1ncc(NC(=O)C(=O)N2C[C@@H](C)CC[C@@H]2c2ccc3sc(C4CC(C)(C)N(C)C(C)(C)C4)nc3c2)cc1C(N)=O (single isomer, unassigned) [Compound 1108] | – | < 100 | < 50 | < 50 | < 50 | < 100 | – | < 1000 | A (an IC50 ratio greater than or equal to 10 fold) |
| CCc1cc(NC(=O)C(=O)N2CC(C)CCC2c2ccc(N3CCC4C(CCCN4C)C3)cc2)cnc1N (single isomer, unassigned) [Compound 1111] | – | 100 to 1000 | < 50 | 50 to 500 | < 50 | < 100 | – | < 1000 | A (an IC50 ratio greater than or equal to 10 fold) |
| CCc1cc(NC(=O)C(=O)N2C[C@H](C)CC[C@H]2c2ccc(N3CCN(C)CC3)cc2)cnc1N (single isomer, unassigned) [Compound 1116] | – | > 1000 | > 500 | > 500 | > 500 | > 1000 | – | > 10000 | – |

Reference: patent publication US11999727B2 (Tango Therapeutics, Inc., priority 2020, dated 2024)
